The test system of data set [1] is larvae of the diamondback moth (Plutella xylostella/sensible strain). The data set is described as follows: Plutella xylostella-Test (PLUTMA). In kind it is in vivo. As to conditions: in Brassica oleracea, 168 h, read-out: mortality in %. From the text: Plutella xylostella-Test (PLUTMA)
The subject of data set [2] is green peach aphid (Myzus persicae). The data set is described as follows: Myzus persicae-Test (MYZUPE). The data set is classed as in vivo. Conditions: 144 h, spray on cabbage leaves, after 6 days. As for the experimental part: Myzus persicae-Test (MYZUPE)
(§1) After 6 days mortality in % is determined.

For data set [3], the system named is fall armyworm larvae (Spodoptera frugiperda). The data set is described as follows: Spodoptera frugiperda-Test (SPODFR spray application). In kind it is in vivo. As to conditions: 168 h, spray on maize leaf sections, after 7 days. From the text:
Spodoptera frugiperda-Test (SPODFR Spray Application)
(§2) • Solvent: 78.0 parts by weight acetone • 1.5 parts by weight dimethylformamide • Emulsifier: 0.5 parts by weight alkylarylpolyglcolether
Maize (Zea mais) leaf sections are sprayed with a preparation of the active ingredient of the desired concentration. Once dry, the leaf sections are infested with fall armyworm larvae (Spodoptera frugiperda). […] 100% means that all caterpillars have been killed and 0% means that none of the caterpillars have been killed.

The test system of the next data set is Phytophthora infestans. In kind it is in vivo. As to conditions: 500 ppm, tomato, preventive, 7 days after the inoculation.
Data set [4] deals with am. serpentine leaf miner (Liriomyza trifolii). The data set is described as follows: Liriomyza trifolii-Test (LIRITR spray application). The data set is classed as in vivo. As to conditions: 168 h, spray on French bean leaf-disks, after 7 days. From the text:
Liriomyza trifolii-Test (LIRITR Spray Application)
(§3) • Solvent: 78.0 parts by weight of acetone • 1.5 parts by weight of dimethylformamide • Emulsifier: 0.5 parts by weight of alkylaryl polyglycolether
French bean (Phaseolus vulgaris) leaf-disks infested with larvaes of the am. serpentine leaf miner (Liriomyza trifolii) are sprayed with a test solution containing the desired concentration of the active ingredient.

For data set [5], the system named is cotton aphid (Aphis gossypii). The data set is described as follows: Aphis gossypii Test (APHIGO). Conditions: 144 h, spray on cotton leaves, after 6 days. In kind it is in vivo. As for the experimental part: Aphis gossypii Test (APHIGO)
as §1

In data set [6] the test system is two spotted spidermite (Tetranychus urticae). The data set is described as follows: Tetranychus urticae-Test, OP-resistant (TETRUR spray application). As to conditions: 144 h, spray on French beans, after 6 days. In kind it is in vivo.
Excerpt: Tetranychus urticae-Test; (OP-Resistant (TETRUR Spray Application)
as §2

Data set [7] deals with white fly (Bemisia tabaci). The data set is described as follows: Bemisia tabaci-Test (BEMITA). Conditions: 168 h, spray on cotton plants, after 7 days. The data set is classed as in vivo. From the text: Bemisia tabaci-Test (BEMITA)
Cotton plants (Gossypium hirsutum) infested with eggs, larvae and pupae of the white fly (Bemisia tabaci) are sprayed with a test solution containing the desired concentration of the active ingredient.

In data set [8] the test system is braun planthopper (Nilaparvata lugens). The data set is described as follows: Nilaparvata lugens-Test (NILALU hydroponic application). In kind it is in vivo. As to conditions: after the specified period of time.
Excerpt: Nilaparvata lugens-Test; (NILALU Hydroponic Application)
as §3

In data set [9] the test system is mustard beetle larvae (Phaedon cochleariae). The data set is described as follows: Phaedon cochleariae larvae-Test. As to conditions: in Brassica oleracea, 168 h, read-out: mortality in %.
The test system is the same in data set [10]. The data set is described as follows: Phaedon cochleariae-Test (PHAECO spray application). In kind it is in vivo. Conditions: 168 h, spray on Chinese cabbage leaf-disks, after 7 days.
Excerpt: Phaedon cochleariae-Test; (PHAECO Spray Application)
as §3
Chinese cabbage (Brassica pekinesis) leaf-disks are sprayed with a preparation of the active ingredient of the desired concentration.

The test system of data set [11] is green peach aphid (Myzus persicae). The data set is described as follows: Myzus persicae-Test (MYZUPE spray application). Conditions: 144 h, spray on Chinese cabbage leaf-disks, after 6 days. The data set is classed as in vivo.
Excerpt: Myzus persicae-Test; (MYZUPE Spray Application)
as §2
Chinese cabbage (Brassica pekinesis) leaf-disks infected with all instars of the green peach aphid (Myzus persicae), are sprayed with a preparation of the active ingredient at the desired concentration.

Data set [12] relates to two-spotted spider mite (Tetranychus urticae). The data set is described as follows: Tetranychus-Test (OP-resistant). The data set is classed as in vivo. As to conditions: read-out: mortality in %. From the text:
Tetranychus-Test (OP-Resistant)

`Cc1ccc(-c2ccc(Cl)cc2)cc1C1=C(O)CC2(CCOCC2)CC1=O` [Compound T3]: the mortality at 100 ppm in data set [1], in [2], in data set [5] and in data set [9] was at least 80% throughout. The mortality at 500 g/ha in data set [3], in data set [4], in [6] and in [8] was at least 80% throughout. The Efficacy in % in the data set with Phytophthora infestans is given as 75%. The molecule further had a mortality at 20 ppm in data set [7] of at least 80%.

In the case of `Cc1ccc(-c2ccc(F)cc2)c(C)c1C1=C(O)CC2(CCOCC2)CC1=O` [Compound T76], the mortality at 500 g/ha in data set [3], in data set [6], in data set [10] and in [11] was at least 80% each time.

In the case of `CCc1cc(C)cc(CC)c1C1=C(O)CC2(CCOCC2)CC1=O` [Compound T22], the mortality at 500 g/ha in [11] is at least 80%.

For `Cc1ccc(-c2ccc(F)cc2)cc1C1=C(O)CC2(CCOCC2)CC1=O` [Compound T74], the mortality at 20 ppm in data set [12] and in [7] was at least 80% throughout. In addition, the mortality at 500 g/ha in data set [3], in data set [4], in data set [10] and in data set [8] was at least 80% each time.

Molecule `Cc1ccc(C)c(C2=C(OC(=O)N(C)CCC#N)CC3(CCOCC3)CC2=O)c1` gave a melting point of 108 to 114 °C.

Regarding `O=C1CC2(CCOCC2)CC(O)=C1c1cc(-c2ccc(F)cc2)ccc1Cl` [Compound T75], the mortality at 500 g/ha in data set [4], in data set [6] and in data set [11] was at least 80% throughout. For the same molecule, the mortality at 20 ppm in [7] is at least 80%.

Usually mortality stands for the percentage killed. The term melting point denotes the temperature of the solid-liquid transition.

Source of the values: patent publication US8487118B2, “Cyclic diones and their use as insecticides, acaricides and/or fungicides” (Bayer CropScience AG, priority 2009, dated 2013).
